These results are taken from patent US10077243B2, “Compounds for treating disorders mediated by metabotropic glutamate receptor 5, and methods of use thereof” (Sunovion Pharmaceuticals Inc., priority 2009, dated 2018).

SMILES strings stand for the structures. A value given as a limit tells only on which side of the number the result lay.

The target of the assay is T1, human mGluR5 (Homo sapiens, UniProt P41594).
T1 construct: expressed in transfected cells; host or cells: HEK293 cells stably expressing rat GLAST (EAAT1), stably transfected with pcDNAzeo3.1 carrying synthetic human mGluR5 DNA; zeocin-selected single clones
T1 sequence (P41594 21-1212): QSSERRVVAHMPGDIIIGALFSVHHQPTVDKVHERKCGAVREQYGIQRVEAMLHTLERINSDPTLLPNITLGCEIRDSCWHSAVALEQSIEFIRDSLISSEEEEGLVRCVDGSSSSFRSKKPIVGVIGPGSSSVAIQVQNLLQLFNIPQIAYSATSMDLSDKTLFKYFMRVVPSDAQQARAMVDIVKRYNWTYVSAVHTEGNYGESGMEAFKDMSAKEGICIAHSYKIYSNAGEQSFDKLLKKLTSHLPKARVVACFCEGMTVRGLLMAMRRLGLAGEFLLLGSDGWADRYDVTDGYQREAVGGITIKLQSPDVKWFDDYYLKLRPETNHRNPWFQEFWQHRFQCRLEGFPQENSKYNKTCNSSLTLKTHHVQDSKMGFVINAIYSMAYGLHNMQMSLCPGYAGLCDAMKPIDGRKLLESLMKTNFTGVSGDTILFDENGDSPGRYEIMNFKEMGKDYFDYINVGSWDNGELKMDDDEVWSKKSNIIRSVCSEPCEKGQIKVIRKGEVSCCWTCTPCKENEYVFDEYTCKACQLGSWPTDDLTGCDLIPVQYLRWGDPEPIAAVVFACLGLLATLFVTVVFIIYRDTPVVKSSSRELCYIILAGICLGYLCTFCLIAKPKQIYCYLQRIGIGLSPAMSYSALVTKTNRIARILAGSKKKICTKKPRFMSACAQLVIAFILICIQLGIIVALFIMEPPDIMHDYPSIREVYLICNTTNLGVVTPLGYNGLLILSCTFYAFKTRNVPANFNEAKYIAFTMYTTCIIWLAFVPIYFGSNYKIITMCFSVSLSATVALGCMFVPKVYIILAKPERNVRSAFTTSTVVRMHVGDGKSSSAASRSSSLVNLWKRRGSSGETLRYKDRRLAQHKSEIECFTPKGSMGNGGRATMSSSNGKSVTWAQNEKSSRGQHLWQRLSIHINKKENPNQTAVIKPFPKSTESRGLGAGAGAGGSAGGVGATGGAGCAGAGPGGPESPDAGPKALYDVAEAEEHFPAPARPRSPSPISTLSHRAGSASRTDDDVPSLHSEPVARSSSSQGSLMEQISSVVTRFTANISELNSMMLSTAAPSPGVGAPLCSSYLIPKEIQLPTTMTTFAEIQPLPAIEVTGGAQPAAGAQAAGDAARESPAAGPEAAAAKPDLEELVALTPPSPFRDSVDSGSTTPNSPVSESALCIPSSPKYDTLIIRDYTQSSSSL
Nature of the assay: In vitro cell-based FLIPR calcium assay for positive modulation of the activation of mGluR5 by glutamate (PAM EC50). The note with it: HEK293/GLAST cells expressing recombinant human mGluR5; FLIPR calcium signal; glutamate added at its EC20; read-out: mGluR5 PAM EC50. The essentials: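 PAM activity was measured as FLIPR calcium fluorescence in the presence of an EC20 glutamate concentration determined daily from a glutamate concentration-response curve. Cells were HEK293/GLAST clones expressing mGluR5, dye-loaded at 25 °C for 45–60 min in HEPES-buffered HBSS; vehicle control was 0.3% DMSO.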
In general, EC50 refers to the midpoint of the concentration-response curve. For `CC(C)CC1Cc2nc3cc(C#Cc4cccc(F)c4)ccc3c(=O)n2C1` (stereo not shown) [Example 3.9, 6-((3-fluorophenyl)ethynyl)-2-isobutyl-2,3-dihydropyrrolo[2,1-b]quinazolin-9(1H)-one], the EC50 lay in the range of 10 to 30 nM.

Take `O=c1c2ccc(C#Cc3ccc(Cl)cc3)cc2nc2n1CCC1(CC2)OCCO1` [Example 7.09]: the EC50 lay within 300 to 1000 nM. Take `O=c1c2ccc(C#Cc3ccc(F)cc3)cc2ncn1Cc1ccco1` [Example 1.14, 7-((4-fluorophenyl)ethynyl)-3-(furan-2-ylmethyl)quinazolin-4(3H)-one]: the half-maximal effective concentration (EC50) was 300 to 1000 nM. Under `O=c1c2ccc(C#Cc3cccc(F)c3)cc2nc2n1CC(Cc1ccccc1)C2` (stereo not shown) [Example 3.10] stands under 10 nM; under `CC1(C)CCCn2c(nc3cc(C#Cc4ccccn4)ccc3c2=O)C1` [Example 6.37, 7,7-dimethyl-3-(pyridin-2-ylethynyl)-7,8,9,10-tetrahydroazepino[2,1-b]quinazolin-12(6H)-one], under 10 nM. With `CC1CCc2nc3cc(C#Cc4ccccn4)ccc3c(=O)n2CC1` (stereo not shown) [Example 6.9, 8-methyl-3-(pyridin-2-ylethynyl)-7,8,9,10-tetrahydroazepino[2,1-b]quinazolin-12(6H)-one] the figure was under 10 nM; with `CCC(C)n1cnc2cc(C#Cc3cccc(F)c3)ccc2c1=O` (stereo not shown) [Example 1.19, 3-(sec-butyl)-7-((3-fluorophenyl)ethynyl)quinazolin-4(3H)-one], under 10 nM; with `N#CC1CCc2nc3cc(C#Cc4ccccn4)ccc3c(=O)n2CC1` (stereo not shown) [Example 6.39, 12-oxo-3-(pyridin-2-ylethynyl)-6,7,8,9,10,12-hexahydroazepino[2,1-b]quinazoline-8-carbonitrile], 100 to 300 nM. With `Cc1cc(F)ccc1C#Cc1ccc2c(=O)n3c(nc2c1)CCC1(CC3)OCCO1` [Example 7.6] the figure was 300 to 1000 nM; with `CC(c1nc2cc(C#Cc3ccccn3)ccc2c(=O)n1C)N(C)C` (stereo not shown) [Example 2.21, 2-(1-(dimethylamino)ethyl)-3-methyl-7-(pyridin-2-ylethynyl)quinazolin-4(3H)-one], 100 to 300 nM; with `O=c1[nH]ccc2cc(C#Cc3cccc(F)c3)ccc12` [Example 18.1, 6-((3-fluorophenyl)ethynyl)isoquinolin-1(2H)-one], 300 to 1000 nM. As for `O=c1c2ccc(C#Cc3ccccn3)cc2nc2n1C[C@@H]1CCCN1C2` [Example 5.23, (S)-8-(pyridin-2-ylethynyl)-2,3,13,13a-tetrahydro-1H-pyrrolo[1′,2′:4,5]pyrazino[2,1-b]quinazolin-11(5H)-one], the EC50 is 30 to 100 nM.

With `O=c1c2ccc(C#Cc3ccccn3)cc2nc2n1CC1(CCOCC1)C2` [Example 3.24, 6′-(pyridin-2-ylethynyl)-2,3,5,6-tetrahydro-1′H-spiro[pyran-4,2′-pyrrolo[2,1-b]quinazolin]-9′(3′H)-one], the concentration giving a half-maximal response (EC50) was in the range of 10 to 30 nM. In the case of `O=c1c2ccc(C#Cc3cscn3)cc2nc2n1CCC1(CC2)OCCO1` [Example 7.62], the EC50 was 300 to 1000 nM.

As for `O=c1c2ccc(C#CC3CCCCC3)cc2nc2n1CCC1(CC2)OCCO1` [Example 7.54], the EC50 is 300 to 1000 nM.

On to `CC1(F)CCc2nc3cc(C#Cc4ccccn4)ccc3c(=O)n2CC1` (single isomer, unassigned) [Example 6.48a/6.48b slower moving enantiomer (fraction 2), 8-fluoro-8-methyl-3-(pyridin-2-ylethynyl)-7,8,9,10-tetrahydroazepino[2,1-b]quinazolin-12(6H)-one], for which the EC50 is under 10 nM. `O=c1c2ccc(C#CC3=CCCC3)cc2nc2n1CCC1(CC2)OCCO1` [Example 7.51]: the EC50 fell in the range of 100 to 300 nM. Turning to `O=c1c2ccc(C#Cc3cccc(Cl)c3)cc2nc2n1CCC1(CC2)OCCO1` [Example 7.8], the EC50 is 300 to 1000 nM. With `CC1Cc2nc3cc(/C=C/c4cccc(F)c4)ccc3c(=O)n2C1` (stereo not shown) [Example 20.14, 6-(3-fluorostyryl)-2,3-dihydro-2-methylpyrrolo[2,1-b]quinazolin-9(1H)-one] the figure was 100 to 300 nM.
